Marks after values point to notes of the source that are not given here.
Experiments:
[1] = tested on: canine radial artery segments; assay: Phenylephrine-induced contraction of pretreated canine radial artery segments in organ chambers; type: cell-based; conditions: for Constriction response to the maximum concentration of phenylephrine, % of KCl response: KCl 30 mmol/L
Description: (§1) Canine radial arteries were harvested without pedicles, and incubated in control buffer or solutions of papavarine (10^−6M), 2, 3-butadione monoxime (BDM, 10^−6M) (a putative protein phosphatase) or phenoxybenzamine (10^−6M) for a period of 30 minutes. The arteries were then washed with buffer and stored in a drug-free culture medium for a set time period (2 hours, 24 hours or 48 hours per example). After storage, vasopressors norepinephrine or phenylephrine were added at incremental concentrations ranging from 0.7 to 3.5 μmol/L (norepinephrine) or 0.300 to 1.5 μmol/L (phenylephrine) to all arterial samples to attempt to induce spasticity or vasoconstriction. The degree of vasoconstriction was then quantified in organ chambers. The responses of the arterial samples to norepinephrine or phenylephrine were compared with spasticity or constriction with receptor-independent potassium chloride (KCl) at 30 mmol/L.
(§2) The maximum responses of untreated and treated radial artery segments of KCl, phenylephrine and norepinephrine (in grams of tension) are summarized in Table 1. The constriction (contraction) responses to phenylephrine and norepinephrine given below are represented as a percentage of the responses to KCl, i.e. 100×(grams tension norepinephrine/grams tension KCl).

[2] = tested on: canine radial artery segments; assay: Norepinephrine-induced contraction of pretreated canine radial artery segments in organ chambers; type: cell-based; conditions: for Maximal constriction response to norepinephrine, % of KCl response: KCl 30 mmol/L
Description: as §1, §2

[3] = tested on: radial artery segments (endothelium); assay: Endothelial relaxation response to acetylcholine of stored radial artery segments; type: cell-based, canine
Description: The endothelium contributes to the overall vascular tone by tonic release of autacoids such as nitric oxide among other vasoactive substances. In addition, any attenuation of function related to autacoid release by phenoxybenzamine or its diluents would be undesirable.

[4] = tested on: human radial artery segments; assay: Phenylephrine-induced vasoconstriction of human radial artery rings in organ chambers; type: cell-based; conditions: 15 μM PE
Description: Radial artery (RA) segments were obtained from patients having elective coronary artery bypass grafting with or without cardiopulmonary bypass at the Crawford Long Hospital of Emory University. A modified Allen's test was performed to assess the adequacy of collateral circulation to the hand preoperatively. The RA was harvested with its pedicle containing the venae comitantes, perivascular fat and areolar tissue (no fasciotomy) using a “no-touch” technique. Branches of the RA were ligated with vascular clips. A subset of the radial artery grafts had the musculofascial tissue incised (with fasciotomy) to expose the aerolar tissue adjacent to the graft. The RA was then placed in a solution containing 20 mL heparinized blood, 1.6 mL 1% lidocaine and 0.4 mL papaverine (30 mg/mL) for approximately 30 minutes. […] Prior to its placement in the aortocoronary position, a small segment of the RA was obtained and immediately placed in Krebs-Henseleit (K-H) buffer (118 mmol/L NaCl, 4.7 mmol/L KCl, 1.2 mmol/L KH2PO4, 1.2 mmol/L MgSO4, 2.5 mmol/L CaCl2, 12.5 mmol/L NaHCO3, and 10 mmol/L glucose) at 4° C., pH 7.4 and transported to the Cardiothoracic Research Laboratory.
The harvested radial artery segment with or without fasciotomy was placed into K-H buffer pH 7.4 with either 10, 100 or 1000 μM PBZ or vehicle. The radial artery was flushed intraluminally twice with this solution, once at the beginning and once at the end of a 30 minute incubation period, which approximates the time between RA harvest and placement in the aortocoronary position. In addition, Control RA segments were obtained prior to intraoperative pretreatment of the conduit with the papaverine/lidocaine solution and received no other treatment. The segments were prepared for placement in organ chambers by carefully skeletonizing them in cold K-H buffer and cutting them into rings three to five mm in length. The rings were then mounted on stainless steel hooks, connected to FT-03 force displacement transducers, and placed into Radnoti organ chambers (Radnoti Glass, Monrovia, Calif. containing 7 mL of oxygenated (95% O2, 5% CO2) K-H buffer at 37° C. and pH 7.4. Indomethacin (10 μmol/L) was added to the buffer to block responses to endogenous prostanoids. The rings were stabilized for one hour with frequent buffer changes and set to a predetermined tension that allowed 75% of maximal contraction to 30 mM potassium chloride (KCl).
The rings were then incubated with increasing concentrations of PE (0.5 to 15 μM) or NE (0.5 to 15 μM). After the highest concentration of alpha adrenergic agent was achieved, 30 mM KCl was added to the bath to quantify the maximal nonreceptor-mediated constriction. In randomly selected vessels, the integrity of the radial artery endothelium was also tested for its receptor-dependent relaxation response to incremental concentrations of acetylcholine (ACh), a stimulator of nitric oxide synthase. The rings were precontracted with the thromboxane A2 mimetic U46619 (1.4 nmol/L), and then exposed to increasing concentrations of Ach (1 nmol/L to 11.7 μmol/L) in the presence of 10 μM indomethacin.
(§3) The changes in isometric force were quantified using an analog-to-digital converter sampling at 2 Hz. The responses were analyzed using a Windows-based videographics program ([…], Wake Forest University, Winston-Salem, N.C.). The force of contraction elicited by the exposure to increasing concentrations of PE and NE was expressed as a percentage of the maximal contraction generated by KCl in each ring. The degree of relaxation after exposure to ACh was expressed as the percent tension reduction from the maximal force of contraction obtained from U46619.
If a significant difference between groups was assigned by ANOVA, a post-hoc Student-Newman-Keuls test was applied to locate the source of differences. A p value of <0.05 was considered to be statistically significant. All data are reported as means±the standard error of the mean.

[5] = tested on: human radial artery segments; assay: Norepinephrine-induced vasoconstriction of human radial artery rings in organ chambers; type: cell-based
Description: (§4) Radial artery (RA) segments were obtained from patients having elective coronary artery bypass grafting with or without cardiopulmonary bypass at the Crawford Long Hospital of Emory University. A modified Allen's test was performed to assess the adequacy of collateral circulation to the hand preoperatively. The RA was harvested with its pedicle containing the venae comitantes, perivascular fat and areolar tissue (no fasciotomy) using a “no-touch” technique. Branches of the RA were ligated with vascular clips. A subset of the radial artery grafts had the musculofascial tissue incised (with fasciotomy) to expose the aerolar tissue adjacent to the graft. […]
(§5) The rings were then incubated with increasing concentrations of PE (0.5 to 15 μM) or NE (0.5 to 15 μM). After the highest concentration of alpha adrenergic agent was achieved, 30 mM KCl was added to the bath to quantify the maximal nonreceptor-mediated constriction. […]
as §3, with “The degree of relaxation after exposure to ACh was expressed as the percent tension reduction from the maximal force of contraction obtained from U46619.” left out

[6] = tested on: human radial artery endothelium; assay: Endothelial function: relaxation to acetylcholine of U46619-precontracted human radial artery rings; type: cell-based; conditions: 12 μM ACh; without fasciotomy; PBZ at 1000 μM where used
Description: as §4, §5
as §3, with “The degree of relaxation after exposure to ACh was expressed as the percent tension reduction from the maximal force of contraction obtained from U46619.” left out

[7] = 2 Hours drug-free storage after 30 min incubation with 10^−6M drug
[8] = 24 Hours drug-free storage after 30 min incubation with 10^−6M drug
[9] = 48 Hours drug-free storage after 30 min incubation with 10^−6M drug
[10] = 48 hours after 30 min pretreatment with 10^−6M drug
[11] = 2 hours after 30 min pretreatment with 10^−6M drug
[12] = 48 hours of storage, did not reach significance
[13] = after washing (2 hours) or 24 or 48 hours after the 30-minute pretreatment, 10^−6M
[14] = 24 hours after 30 min pretreatment with 10^−6M drug

SMILES	Contraction response to phenylephrine from resting force (maximum response) [1, 7]	Contraction response to phenylephrine from resting force (maximum response) [1, 8]	Contraction response to phenylephrine from resting force (maximum response) [1, 9]	Constriction response to the maximum concentration of phenylephrine, % of KCl response [1, 10]	Contraction response to norepinephrine from resting force (maximum response) [2, 7]	Contraction response to norepinephrine from resting force (maximum response) [2, 8]	Contraction response to norepinephrine from resting force (maximum response) [2, 9]	Maximal constriction response to norepinephrine, % of KCl response [2, 11]	also measured
CC(=O)C(C)=NO [BDM, 2,3-butadione monoxime]	8.35 ± 0.79 grams of tension	9.43 ± 0.64 grams of tension	7.01 ± 0.80 grams of tension	approximately 39%	5.69 ± 0.29 grams of tension	4.22 ± 0.75 grams of tension	7.01 ± 0.85 grams of tension	approximately 75%	Constrictor responses to phenylephrine compared with control segments (in words) ([1]; at 2 hours and 24 hours): very similar; Constriction responses to norepinephrine compared with control vessels (in words) ([2]; after 24 hours and 48 hours of drug-free storage): similar
COc1ccc(Cc2nccc3cc(OC)c(OC)cc23)cc1OC [papaverine]	14.29 ± 0.76 grams of tension	12.33 ± 0.76 grams of tension	10.46 ± 0.52 grams of tension	–	7.65 ± 0.72 grams of tension	10.37 ± 0.26 grams of tension	12.55 ± 1.22 grams of tension	–	Maximal constrictor response to phenylephrine compared with control vessels (in words) [1, 12]: paradoxical trend toward increased maximal constrictor response; Effect on phenylephrine-induced contraction (in words) [1, 13]: no inhibitory effect; Maximal constrictor response to norepinephrine compared with control vessels (in words) [2, 12]: paradoxical trend toward increased maximal constrictor response; Effect on norepinephrine-induced contraction (in words) [2, 13]: no inhibitory effect
CC(COc1ccccc1)N(CCCl)Cc1ccccc1 (centres unmarked) [phenoxybenzamine]	2.03 ± 0.13 ^b grams of tension	0.20 ± 0.01^b grams of tension	−1.08 ± 0.19^b grams of tension	−12%±4%	0.80 ± 0.05^b grams of tension	−0.58 ± 0.05^b grams of tension	−1.62 ± 0.36^b grams of tension	−7%±1%	Maximum relaxation response to the highest concentration of acetylcholine ([3]; after 24 hours of storage): 57%±6%; Maximum relaxation response to the highest concentration of acetylcholine ([3]; after 48 hours of storage): 30%±5%; Maximum relaxation response to the highest concentration of acetylcholine ([3]; at 2 hours of storage): 61%±5%; Attenuation of vasoconstriction response to PE, % of control ([4]; 10 μM PBZ): 63%; Contraction at the highest concentration of PE, % of the KCl response ([4]; 10 μM PBZ 30 min in addition to papaverine/lidocaine): 16.5±4.3%; Attenuation of vasoconstriction response to PE, % of control ([4]; 100 μM PBZ): 80%; Contraction at the highest concentration of PE, % of the KCl response ([4]; 100 μM PBZ 30 min in addition to papaverine/lidocaine): 8.7±5.1%; Attenuation of vasoconstriction response to PE, % of control ([4]; 1000 μM PBZ): 116%; Contraction at the highest concentration of PE, % of the KCl response ([4]; 1000 μM PBZ 30 min in addition to papaverine/lidocaine): −7.2±4.4%; Constriction response to the maximum concentration of phenylephrine, % of KCl response [1, 11]: 19%±8%; Constriction response to the maximum concentration of phenylephrine, % of KCl response [1, 14]: 1%±4%; Effect on constriction to NE (in words) ([5]; PBZ at 10 μM): inhibited constriction to concentrations of NE greater than 7 μM; Effect on constrictor responses to NE (in words) ([5]; PBZ at 1000 μM, across all concentrations of NE): completely inhibited; Relaxation response to ACh (percent tension reduction from U46619 contraction) [6]: 81.0±11.8%; Maximal constriction response to norepinephrine, % of KCl response [2, 14]: −5%±5%; Maximal constriction response to norepinephrine, % of KCl response [2, 10]: −20%±5%
